Laboratory results as given in patent US7452905B2, “Phenylalanine derivatives” (Ajinomoto Co., Inc., priority 2000, dated 2008).

Target: T1, integrin α4β7 (Homo sapiens, UniProt P13612+P26010)
T1 construct: lymphoma cell strain RPMI-8866 of human B cells, known to express integrin α4β7; endogenous in cells; host or cells: RPMI-8866
T1 sequence (P13612 34-1032): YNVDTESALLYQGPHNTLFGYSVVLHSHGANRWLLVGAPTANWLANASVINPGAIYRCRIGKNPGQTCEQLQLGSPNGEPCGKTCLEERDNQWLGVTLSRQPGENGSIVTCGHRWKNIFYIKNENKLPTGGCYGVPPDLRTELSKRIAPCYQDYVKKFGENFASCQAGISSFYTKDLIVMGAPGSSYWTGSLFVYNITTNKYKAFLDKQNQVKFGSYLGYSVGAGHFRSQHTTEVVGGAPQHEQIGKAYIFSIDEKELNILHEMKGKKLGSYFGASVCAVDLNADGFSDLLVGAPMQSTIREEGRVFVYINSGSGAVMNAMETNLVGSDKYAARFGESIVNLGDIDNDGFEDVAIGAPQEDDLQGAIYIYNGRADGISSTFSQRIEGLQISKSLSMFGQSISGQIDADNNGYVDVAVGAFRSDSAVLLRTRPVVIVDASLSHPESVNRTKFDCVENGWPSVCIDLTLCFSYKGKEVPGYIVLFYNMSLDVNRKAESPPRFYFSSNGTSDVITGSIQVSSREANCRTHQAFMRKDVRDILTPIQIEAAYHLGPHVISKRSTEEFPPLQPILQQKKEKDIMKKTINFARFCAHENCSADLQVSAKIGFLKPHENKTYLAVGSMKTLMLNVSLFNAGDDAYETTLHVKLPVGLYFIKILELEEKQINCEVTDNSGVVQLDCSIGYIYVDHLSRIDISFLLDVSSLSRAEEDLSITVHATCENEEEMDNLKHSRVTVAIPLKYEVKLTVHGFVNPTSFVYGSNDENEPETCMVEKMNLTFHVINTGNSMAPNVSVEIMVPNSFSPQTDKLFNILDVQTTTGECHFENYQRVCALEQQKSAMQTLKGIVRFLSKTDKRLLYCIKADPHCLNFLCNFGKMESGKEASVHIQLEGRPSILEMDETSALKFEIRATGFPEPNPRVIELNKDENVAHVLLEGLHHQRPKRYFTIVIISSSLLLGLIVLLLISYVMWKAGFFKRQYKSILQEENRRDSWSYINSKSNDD
T1 sequence (P26010 20-798): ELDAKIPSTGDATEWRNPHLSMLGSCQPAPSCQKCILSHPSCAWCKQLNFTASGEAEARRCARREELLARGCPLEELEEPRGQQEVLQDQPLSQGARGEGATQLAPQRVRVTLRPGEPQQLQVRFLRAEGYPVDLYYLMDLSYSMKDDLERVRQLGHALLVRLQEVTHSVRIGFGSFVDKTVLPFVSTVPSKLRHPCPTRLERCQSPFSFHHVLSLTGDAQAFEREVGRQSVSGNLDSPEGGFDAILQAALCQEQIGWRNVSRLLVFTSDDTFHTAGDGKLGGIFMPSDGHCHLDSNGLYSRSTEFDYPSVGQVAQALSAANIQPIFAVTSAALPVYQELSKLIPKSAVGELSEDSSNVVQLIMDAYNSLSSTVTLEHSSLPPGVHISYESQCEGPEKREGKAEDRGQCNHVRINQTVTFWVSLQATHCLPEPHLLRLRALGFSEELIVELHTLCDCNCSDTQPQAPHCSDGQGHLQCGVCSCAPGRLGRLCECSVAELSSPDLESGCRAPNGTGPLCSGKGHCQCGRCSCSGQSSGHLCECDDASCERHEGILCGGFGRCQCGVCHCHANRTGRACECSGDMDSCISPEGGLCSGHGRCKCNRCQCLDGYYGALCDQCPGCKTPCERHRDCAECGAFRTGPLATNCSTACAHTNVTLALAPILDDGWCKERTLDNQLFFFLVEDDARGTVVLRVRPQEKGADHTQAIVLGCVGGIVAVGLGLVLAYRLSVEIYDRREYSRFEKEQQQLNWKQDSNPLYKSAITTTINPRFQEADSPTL
Assay: VCAM antagonistic activity (VCAM-1/α4β7 binding assay), RPMI-8866 cells binding to VCAM-1
Assay type: cell-based
Conditions: RPMI-8866 cells binding to recombinant human VCAM-1, binding buffer with 4 mM MnCl2; 50% binding inhibition; read-out: Antagonistic Activity IC50 α 4 β 7/VCAM
Description: VCAM Antagonistic Activity (VCAM-1/α4β7 Binding Assay)
The capacity of a test substance antagonistic to the binding of lymphoma cell strain RPMI-8866 of human B cells, known to express integrin α4β7, to VCAM-1 was determined. 100 μl/well of a solution (500 ng/ml) of recombinant human VCAM-1 (R & D systems) solution diluted with buffer A (0.1 M NaHCO3, pH 9.6) was added to a micro titer plate having 96 wells (Nunc Maxisorp). After the incubation at 4° C. overnight, unbound VCAM-1 was removed by washing once with PBS. After completion of the washing, a buffer (buffer B) obtained by diluting Block Ace (Dainippon Pharmaceutical Co., Ltd.) with PBS to ¼ concentration was added in an amount of 150 μl/well. After the incubation at room temperature for 1 hour, buffer B was removed and the plate was washed with PBS once.
RPMI-8866 cells were incubated in Dulbecco modified Eagle medium containing 10 μg/ml of Calcein-AM (Wako Pure Chemical Industries, Ltd.) (SIGMA, hereinafter referred to as “DMEM”) at 37° C. for 30 minutes to label with fluorescence. The cells were again suspended in a binding buffer (20 mM HEPES, DMEM containing 0.1% BSA) containing 4 mM of MnCl2.
50 μl of a test substance of various concentrations obtained by the dilution with the binding buffer was added to the plate. Immediately thereafter, 50 μl (final volume: 100 μl/well) of the fluorescent RPMI-8866 cells (4×10^6 cells/ml) were added thereto, and they were incubated at room temperature for 30 minutes. After the shaking on a plate shaker (IKA MTS-4) at 800 rpm for 30 seconds, the solution was immediately removed to remove the unbound cells. The fluorescence quantity of the bound cells remaining in the wells was determined with a fluorescent plate reader (Wallac 1420 ARVO multi-label counter) (filter excitation wave length: 485 nm, emission wave length: 535 nm). The fluorescent strength thus obtained is proportional to the number of RPMI-8866 cells bound to VCAM-1 and remaining on the plate. The binding rate of each test material in various concentrations was determined while the fluorescent strength of the test material-free well was determined to be 100%. The concentration IC50 for the 50% binding inhibition was calculated.

Compound	IC50 [µM]
O=C(N[C@@H](Cc1ccc(N2C(=O)c3cccc(OCc4ccccc4)c3C2=O)cc1)C(=O)O)c1c(Cl)cccc1Cl [Example 74]	0.11
O=C(N[C@@H](Cc1ccc(N2CC=CC2=O)cc1)C(=O)O)c1c(Cl)cccc1Cl [Example 25]	0.16
O=C(N[C@@H](Cc1ccc(N2C(=O)c3ccc(OCc4ccccc4)cc3C2=O)cc1)C(=O)O)c1c(Cl)cccc1Cl [Example 80]	0.08
O=C(N[C@@H](Cc1ccc(N2C(=O)c3cccc4cccc(c34)C2=O)cc1)C(=O)O)c1c(Cl)cccc1Cl [Example 16]	0.021
O=C(N[C@@H](Cc1ccc(N2C(=O)Cc3ccccc3C2=O)cc1)C(=O)O)c1c(Cl)cccc1Cl [Example 15]	0.034
Cc1cccc2c1C(=O)N(c1ccc(C[C@H](NC(=O)c3c(Cl)cncc3Cl)C(=O)O)cc1)C2=O [Example 59]	0.01
CN(C)C(=O)c1ccc2c(c1)C(=O)N(c1ccc(C[C@H](NC(=O)c3c(Cl)cccc3Cl)C(=O)O)cc1)C2=O [Example 33]	0.0089
O=C(N[C@@H](Cc1ccc(N2C(=O)[C@@H]3CCCC[C@H]3C2=O)cc1)C(=O)O)c1c(Cl)cccc1Cl [Example 40]	0.018
CC(=O)C1Cc2ccccc2C(=O)N1c1ccc(C[C@H](NC(=O)c2c(Cl)cccc2Cl)C(=O)O)cc1 (some centres unmarked) [Example 86]	0.039
O=C(N[C@@H](Cc1ccc(N2C(=O)CC3(CCCC3)CC2=O)cc1)C(=O)O)c1c(Cl)cccc1Cl [Example 48]	0.021
O=C(N[C@@H](Cc1ccc(N2C(=O)C3=C(SCCS3)C2=O)cc1)C(=O)O)c1c(Cl)cccc1Cl [Example 38]	0.013
CCOc1ccc2c(c1)C(=O)N(c1ccc(C[C@H](NC(=O)c3c(Cl)cccc3Cl)C(=O)O)cc1)C2=O [Example 79]	0.086
O=C(N[C@@H](Cc1ccc(N2C(=O)C3=C(CCCC3)C2=O)cc1)C(=O)O)c1c(Cl)cccc1Cl [Example 37]	0.0058
O=C(N[C@@H](Cc1ccc(N2C(=O)c3ccc([N+](=O)[O-])cc3C2=O)cc1)C(=O)O)c1c(Cl)cccc1Cl [Example 9]	0.024
O=C(N[C@@H](Cc1ccc(N2C(=O)C3CC3C2=O)cc1)C(=O)O)c1c(Cl)cccc1Cl (some centres unmarked) [Example 46]	0.042
O=C(N[C@@H](Cc1ccc(N2CC=CCCC2=O)cc1)C(=O)O)c1c(Cl)cccc1Cl [Example 27]	0.073
Cc1cccc2c1C(=O)N(c1ccc(C[C@H](NC(=O)c3c(Cl)cc(-c4nnn[nH]4)cc3Cl)C(=O)O)cc1)C2=O [Example 83, (2S)-2-(2,6-dichloro-4-tetrazolyl-benzoylamino)-3-[4-(4-methyl-1,3-dioxo-1,3-dihydroisoindole-2-yl)phenyl] Propionic Acid]	0.00055
CC1(C)[C@H]2CC[C@]1(C)C(=O)N(c1ccc(C[C@H](NC(=O)c3c(Cl)cccc3Cl)C(=O)O)cc1)C2=O [Example 49]	0.06

Compound	IC50 [µM]
CCCCOc1cccc2c1C(=O)N(c1ccc(C[C@H](NC(=O)c3c(Cl)cccc3Cl)C(=O)O)cc1)C2=O [Example 75]	0.055
CC1CCC2C(=O)N(c3ccc(C[C@H](NC(=O)c4c(Cl)cccc4Cl)C(=O)O)cc3)C(=O)C2C1 (some centres unmarked) [Example 43]	0.043
O=C(N[C@@H](Cc1ccc(N2C(=O)[C@H]3CC[C@H](c4ccccc4)C[C@H]3C2=O)cc1)C(=O)O)c1c(Cl)cccc1Cl [Example 47]	0.092
O=C(N[C@@H](Cc1ccc(N2C(=O)[C@@H]3[C@H](C2=O)[C@@H]2C=C[C@H]3C2)cc1)C(=O)O)c1c(Cl)cccc1Cl [Example 42]	0.021
O=C(N[C@@H](Cc1ccc(N2C(=O)Cc3ccccc3CC2=O)cc1)C(=O)O)c1c(Cl)cccc1Cl [Example 82]	0.9
O=C(N[C@@H](Cc1ccc(N2CC=CCC2=O)cc1)C(=O)O)c1c(Cl)cccc1Cl [Example 26]	0.08
O=C(N[C@@H](Cc1ccc(N2C(=O)c3ccccc3C2=O)cc1)C(=O)O)c1c(Cl)cccc1Cl [Example 1]	0.0097
Nc1cccc2c1C(=O)N(c1ccc(C[C@H](NC(=O)c3c(Cl)cccc3Cl)C(=O)O)cc1)C2=O [Example 71]	0.23
Cc1ccc(C)c2c1C(=O)N(c1ccc(C[C@H](NC(=O)c3c(Cl)cccc3Cl)C(=O)O)cc1)C2=O [Example 30]	0.046
O=C(N[C@@H](Cc1ccc(N2C(=O)[C@H]3CC=CC[C@H]3C2=O)cc1)C(=O)O)c1c(Cl)cccc1Cl [Example 45]	0.019
O=C(N[C@@H](Cc1ccc(N2C(=O)c3ccc(O)cc3C2=O)cc1)C(=O)O)c1c(Cl)cccc1Cl [Example 77]	0.073
COc1ccc2c(c1)C(=O)N(c1ccc(C[C@H](NC(=O)c3c(Cl)cccc3Cl)C(=O)O)cc1)C2=O [Example 78]	0.042
CCOc1cccc2c1C(=O)N(c1ccc(C[C@H](NC(=O)c3c(Cl)cccc3Cl)C(=O)O)cc1)C2=O [Example 73]	0.0085
O=C(N[C@@H](Cc1ccc(N2C(=O)[C@@H]3[C@H](C2=O)[C@@H]2C=C[C@H]3CC2)cc1)C(=O)O)c1c(Cl)cccc1Cl [Example 44]	0.039
Cc1cccc2c1C(=O)N(c1ccc(C[C@H](NC(=O)c3c(Cl)cc(NS(C)(=O)=O)cc3Cl)C(=O)O)cc1)C2=O [Example 84]	0.0006
O=C(N[C@@H](Cc1ccc(N2Cc3ccccc3C2=O)cc1)C(=O)O)c1c(Cl)cccc1Cl [Example 17]	0.14
Cc1ccc2c(c1)C(=O)N(c1ccc(C[C@H](NC(=O)c3c(Cl)cccc3Cl)C(=O)O)cc1)C2=O [Example 6]	0.011
